Data published in patent US20250361217A1, “FATTY ACID COMPOUNDS” (University of Pittsburgh - Of the Commonwealth System of …, priority 2022, published 2025).

Assays:
[1] = Cassette PK of branched vs straight-chain FA-AA (NAA) conjugates, oral or intraperitoneal; type: in vivo, mice; conditions: 30 mg/kg; for levels in liver, rank among the groups / levels in plasma, rank among the groups: both intraperitoneal and oral administration
Protocol: A library of branched fatty acid-amino acid (FA-AA) conjugates was synthesized, exemplified in the table above. […] The absorption of the selected straight chain vs. branched FA-AA conjugates was compared in a cassette PK study as described below in more detail. A mixture of all the FA-AA conjugates (with or without branching) was concomitantly administered orally to mice (n=4-5, 30 mg/kg each compound). […] The absorption improvement resulting from the branching of the fatty acids was ubiquitous across all the FA-AA conjugates independent of the choice of amino acids. In contrast, all tested FA-AA conjugated dosed intraperitoneally (n=4-5, 30 mg/kg each compound) reached significant levels in circulation, bypassing the first-pass metabolism.
Two cassette PK experiments were performed to compare the pharmacokinetics of dimethyl acyl amino acids (acyl-2M-amino acids) with their natural, non-branched analogs and evaluate the increased half-life, oral bioavailability, and liver concentrations obtained by the invention (introduction of the dimethyl (2M) branching).
Groups of mice (n=4 per time point per group) were used. The compounds were delivered using a cassette pharmacokinetic design by oral gavage or by intraperitoneal injections at a dose of 30 mg/kg. Groups are detailed in table 1. To note, the methyl ester of C18:0-2M-Gly was abbreviated as C18:0-2M-Gly-Me.
The following groups were used, and the time points were 0, 1, 2, and 4 h for intraperitoneal administration and 0, 2, and 4 h for oral administration.

[2] = test system: C57BL6 mice fed with the NASH diet; assay: Oral treatment in established NASH mouse model; type: in vivo; conditions: oral 10 mg/kg/day, 6 weeks
Protocol: This study defined the protective properties of branched FA-AA conjugates and the enhanced potency of 11U3-2M conjugated to Leucine (Leu) when administered orally in an established NASH mouse model. C57BL6 mice were fed with the NASH diet for 16 weeks and then orally administered with vehicle (n=10), C18:1-Leu (n=10), C18:1-2M-Leu (n=8) and 11U3-2M-Leu (n=12) (10 mg/kg/day) for 6 weeks while on the NASH diet. Mice were sacrificed and organs were collected for further analysis.

[3] = test system: mice with established NASH; conditions: intraperitoneal administration; cited from earlier work

| Compound | levels in liver, rank among the groups [1] | levels in plasma, rank among the groups [1] | expression of genes regulating lipogenesis in liver [2] | fibrosis and cell death genes (e.g., collagens and TGF-b) in liver [2] | plasma alanine transaminase (ALT) [2] | plasma aspartate transaminase (AST) [2] | further results |
| --- | --- | --- | --- | --- | --- | --- | --- |
| CCCc1ccc(CCCCCCCCCC(C)(C)C(=O)NCC(=O)O)o1 [11U3-2M-Gly, (2,2-Dimethyl-11-(5-propylfuran-2-yl)undecanoyl)glycine] | highest levels | highest levels |  |  |  |  |  |
| CCCCCCCCC=CCCCCCCC(C)(C)C(=O)N[C@@H](CC(C)C)C(=O)O [C18:1-2M-Leu, (2,2-dimethyloctadec-9-enoyl)leucine] |  |  | suppressed | anti-fibrotic actions | significantly decreased | significantly decreased |  |
| CCCCCCCC/C=C\CCCCCCCC(=O)N[C@@H](CC(C)C)C(=O)O [C18:1-Leu, N-oleoyl leucine] |  |  |  |  |  |  | steatosis, inflammation and fibrosis in mice with established NASH [3]: improved steatosis, and lowered inflammation and fibrosis |
| CCCc1ccc(CCCCCCCCCC(C)(C)C(=O)NC(CC(C)C)C(=O)O)o1 (stereo not shown) [11U3-2M-Leu] | highest levels | highest levels | suppressed | anti-fibrotic actions | significantly decreased | significantly decreased | cholesterol levels [2]: significantly decreased; expression of key genes regulating fatty acid oxidation (PPARα signaling pathway) in liver [2]: significantly induced; inflammatory effect in the NASH animals (FIG. 23) [2]: anti-inflammatory; liver weight in comparison to vehicle control [2]: significant decrease; liver/body weight ratio in comparison to vehicle control [2]: significant decrease; plasma concentration over time (resistance to metabolism) vs 11U3-Leu ([1]; mice): maintained over a longer period; AUC0-4 vs all the straight-chain analogs ([1]; intraperitoneal): significantly higher; Cmax vs all the straight-chain analogs ([1]; intraperitoneal): significantly higher; metabolism vs all the straight-chain analogs ([1]; intraperitoneal): slower metabolism |
